Reference: patent publication US20240082221A1, “COMPOSITIONS AND METHODS FOR THE IDENTIFICATION OF COMPOUNDS THAT PROTECT AGAINST LIPOFUSCIN CYTOTOXICITY” (priority 2021, published 2024)
“Also recorded” adds a separate entry of the source. Blank lines part the entries; values can stand above or below the compound they belong to. Peptide text beside a SMILES is read from it. * marks the point of attachment. Cbz = O=C(OCc1ccccc1)*; CH2F = FC*

How the values were obtained:
[1] = test system: ARPE-19 cells; details: for protection against lethal doses of A2E, viability: ARPE19 pretreated 1 hr, then A2E 25 μM for 24 hrs in presence of drug; for protection against lethal doses of A2E, viability / protection against light-independent LF (A2E/ATRD) cytotoxicity, RPE survival: AlamarBlue; for protection against light-independent LF (A2E/ATRD) cytotoxicity, RPE survival: ARPE-19, inhibitor pretreatment, A2E/ATRD 24 h, no light; for cell death in ARPE19 cells exposed to the substance: light-independent
Procedure: Cell Viability Assay. […] 1× AlamarBlue solution prepared in OptiMEM was used to replace the media supernatant and the plate's fluorescence was determined at 555 nm excitation/585 nm emission with a SpectraMax M (Molecular Devices, CA, USA), after 1 h. […] The exact timing of appearance of far-red (DRAQ7=plasma membrane leakage) and blue (NUC405=caspase 3 activation) fluorescence signals was critical to differentiate apoptosis and necrosis from secondary events, such as membrane damage and generalized proteolytic activation during the late phase of apoptosis and necrosis, respectively.
Real time monitoring of necrotic and apoptotic cell-death. Cell-death assay to study Lipofuscin's dark toxicity was performed. 90% confluent ARPE-19 or hfRPE were incubated overnight in serum free media supplemented with indicated LB concentration. Viability was assessed at 24 hrs by AlamarBlue®, or microscopy with NUC405/DRAQ7. Real time monitoring of necrotic (red) and apoptotic (blue) cell-death was performed by automated fluorescence microscopy. The exact timing of appearance of far-red (DRAQ7=plasma membrane leakage) and blue (NUC405=caspase 3 activation) fluorescence signals was critical to differentiate apoptosis and necrosis from secondary events, such as membrane damage and generalized proteolytic activation during the late phase of apoptosis and necrosis, respectively.
Chemical inhibitors. Chemical inhibitors used in this study are described in FIG. 12.

[2] = test system: cathepsin D; assay type: cell-based
Text: (§1) Next, A2E buildups were imaged using a combination of DIC and fluorescence: A2E appeared as granules with well-defined edges, both within cells or after drying over a coverslip (FIGS. 14D and 14E). Next, the ability of the suspected A2E crystals to damage lysosomal membranes was investigated. A recently developed galectin-3 puncta assay for early detection of lysosomal membrane permeabilization (LMP) was used. Briefly, cytosolic galectin-3 rapidly binds to the glycocalyx in the luminal face of lysosomal membranes as they become leaky, which is easily detectable with anti-galectin high-affinity antibodies. L-Leucyl-L-Leucine methyl ester (LLO) a lysosomotropic peptide that causes LMP was used as positive control of puncta formation (FIG. 14E). […] LMP was confirmed by showing the […] of cathepsin D, as surrogate of lysosomal enzymes. […] Also, very remarkable was the observation that the same unique pattern of protection with arimoclomol and Nec-7 but not Nec-1 was observable for LLO (FIG. 14K), consistent with the idea that necroptosis by A2E is being caused by LMP.

[3] = test system: CHOP; experiment: Western blot of CHOP upregulation (UPR, downstream of PERK); assay type: cell-based, Human; details: cells incubated with A2E
Procedure: (§2) Immunoblotting. Total cell lysates were extracted using RIPA lysis buffer (50 mM TrisHCl, Ph 8.0, 150 mM NaCl, 1% NP40, 0.5% Sodium Deoxycholate, 0.1% SDS, protease-phosphatase inhibitor) after the incubation of the specific sample group in a 48 well plate. Sonication or syringing (20 times) was done followed by centrifugation at 12,000×g for 10 mins and the supernatant was collected and stored in −80° C. Proten concentration from homogenates were assessed by Pierce Rapid Gold BCA protein assay kit (ThermoFisher Scientific, cat.no. A53225). Then 30 μg of protein was analyzed by standard SDS-PAGE gel. Samples were mixed 4:1 (v:v) with Nupage loading buffer with or without 8% 0-mercaptoethanol and heated for 10 min at 72° C. SDS-PAGE was done using 4-12% Nupage gel and buffer (Life, NP0335BOX). Next, SDS-PAGE gel was transferred to nitrocellulose membrane (Whatman, PROTAN BA83) overnight at 20V. The following day, 5% milk in TBS was used for 2 h blocking the membrane and then primary antibody was added in TBST (TBS, 0.1% Tween-20) for overnight at 4° C. Next day membranes were washed and incubated for 2 hours at room temperature with HRP conjugated secondary antibody (cat #G21234, Invitrogen) at 1:10,000 dilution. After 3 more washed membranes were probed with enhanced chemiluminescence (ECL) reagent and detected using an X-ray films for chemiluminescence image (GE healthcare, RPN2106). Scanning/imaging and quantitation of the image was done using silverfast 8 application software and Fiji Image J. Antibodies for Western blotting were list in FIG. 10.

[4] = test system: human MLKL; experiment: Western blot of Ser358 phospho-MLKL, phosphorylation and polymerization of MLKL; assay type: cell-based; details: for effect on LF-induced phosphorylation and polymerization of MLKL: non-reducing conditions, cells with A2E/ATRD; for induction of phosphorylation and polymerization of MLKL: absence of light
Procedure: as §2
For its phosphorylation, MLKL and its kinase need to be recruited into multiprotein complexes, known as necrosomes (FIG. 4O). Necrosomes are not well conserved among species and vary also with the nature of the stimuli that triggers their formation. […] Considering that phosphorylation of human MLKL at Ser358 (pMLKL), is a hallmark triggering event and marker of necroptosis, the Ser358-phosphorylation and polymerization status of MLKL in cells with LF was determined. […] A prerequisite for the assembly of these RIP kinases into necrosomes was their phosphorylation.

[5] = test system: UPR (PERK and ATF6 branches); experiment: Western blot of ER-stress markers (p-eIF2a, ATF4, BiP, ATF6) without illumination; assay type: cell-based, Human
Procedure: as §2
The causal link between LF accumulation and ER-stress without light assistance was analyzed (FIG. 6A). […] The activation of the IRE1α branch was visualized by qPCR.

[6] = test system: ARPE19 cells; experiment: ATR-induced light-independent cell death; assay type: cell-based, Human; details: pre-treatment with 33 μM
Text: Overall, these indicate that necroptosis is a specific readout of ocular lipofuscin toxicity, easily distinguishable from the poisonous effects of ATR.

[7] = test system: IRE1α; experiment: qPCR of spliced XBP1 (XBP1s) as readout of IRE1α activity in ARPE-19; assay type: cell-based, Human; details: in the dark, qPCR
Text: RNA isolation and quantitative PCR. Total RNA was extracted from cultured cells or mouse eye RPE layer using the RNeasy Mini kit (QIAGEN). The total RNA was digested with deoxyribonuclease I to prevent amplification of genomic DNA. The total RNA then was reversed transcribed using High-Capacity cDNA Reverse Transcription Kit (ThermoFisher Scientific, cat.no. 4368814) and analyzed gene expression using SYBR Green Master Mix (ThermoFisher Scientific, cat.no. 4472908) in an Applied Biosystems StepOne real time PCR machine. GAPDH was used as a reference gene. […] After genes were amplified by real time PCR, some of the PCR products were separated by 2.5% agarose gel.

[8] = test system: lysosomal membranes; assay type: cell-based
Text: as §1

Compound: N=C(N)N/N=C/c1c(Cl)cccc1Cl [Guanabenz]
protection against lethal doses of A2E, viability [1]: did not confer significant protection

Compound: [O-][n+]1cccc(/C(Cl)=N/OC[C@H](O)CN2CCCCC2)c1 [arimoclomol]
effect on loss of cathepsin-D activity caused by A2E [2]: prevented
protection against light-independent LF (A2E/ATRD) cytotoxicity, RPE survival [1]: protects against necroptosis by lipofuscin

Compound: CC(C)S(=O)(=O)c1ccc2nccc(Nc3ccc4scnc4c3)c2c1 [GSK'872]
effect on LF-induced upregulation of CHOP / UPR [3]: neither Nec1 nor GSK'872 effected the UPR
protection against light-independent LF (A2E/ATRD) cytotoxicity, RPE survival [1]: did not protect; also recorded: not affected
effect on LF-induced phosphorylation and polymerization of MLKL [4]: did not; also recorded: not affected

Compound: CC1=C(/C=C/C(C)=C/C=C/C(C)=C/C=O)C(C)(C)CCC1 [ATR, all-trans-retinal]
cell death in ARPE19 cells exposed to the substance [1]: Dose dependent cell death
induction of phosphorylation and polymerization of MLKL [4]: no increase in phosphorylation/polymerization of MLKL

Compound: COc1cc(OC)c(/C=C/S(=O)(=O)Cc2ccc(OC)c(OP(=O)(O)O)c2)c(OC)c1 [Briciclib]
protection against lethal doses of A2E, viability [1]: did not confer significant protection

Compound: COc1ccc(O)c(C(C)(C)C)c1 [BHA]
protection against light-independent LF (A2E/ATRD) cytotoxicity, RPE survival [1]: did not rescue

Compound: tunicamycin
cleavage of ATF6 ([5]; 6 hrs treatment, 20 μM A2E): significant cleavage

Compound: O=C(/C=C/c1ccccc1)NC(NC(=S)Nc1ccc(Cl)cc1)C(Cl)(Cl)Cl (stereo not shown) [SAL003]
protection against lethal doses of A2E, viability [1]: protected against lipofuscin

Compound: CN1C(=O)C(Cc2c[nH]c3ccccc23)NC1=S (stereo not shown) [Nec1, Necrostatin-1]
effect on LF-induced upregulation of CHOP / UPR [3]: neither Nec1 nor GSK'872 effected the UPR
effect on cell death by ATR [6]: did not block cell death
protection against light-independent LF (A2E/ATRD) cytotoxicity, RPE survival [1]: not affected
effect on LF-induced phosphorylation and polymerization of MLKL [4]: did not block phosphorylation and polymerization of MLKL; also recorded: not affected

Compound: c1cc(Nc2cc(C3CC3)[nH]n2)nc(Nc2ccc3nc[nH]c3c2)n1 [APY29]
protection against light-independent LF (A2E/ATRD) cytotoxicity, RPE survival [1]: did not translate into survival

Compound: COc1nccnc1NS(=O)(=O)c1ccc(NC(=O)/C=C/c2ccc([N+](=O)[O-])s2)cc1 [necrosulfonamide]
protection against light-independent LF (A2E/ATRD) cytotoxicity, RPE survival [1]: increased RPE survival in a dose dependent manner

Compound: Cc1cc(O)c(C(=O)/C=C/c2ccc(O)c([N+](=O)[O-])c2)c(=O)o1 [Nec2]
protection against light-independent LF (A2E/ATRD) cytotoxicity, RPE survival [1]: not affected
effect on LF-induced phosphorylation and polymerization of MLKL [4]: not affected

Compound: CN1CCN(C(=O)c2ccc(-c3ccc4c(C=O)c(O)ccc4c3)s2)CC1 [MKC-3946]
protection against light-independent LF (A2E/ATRD) cytotoxicity, RPE survival [1]: did not translate into survival

Compound: Cc1cc(=O)oc2c(C=O)c(O)ccc12 [4μ8C]
protection against light-independent LF (A2E/ATRD) cytotoxicity, RPE survival [1]: did not translate into survival

Compound: all-trans-retinal dimers [ATRD]
induction of ATF4 and BiP ([5]; without light): highest induction of ATF4 and BiP
cell death in ARPE19 cells exposed to the substance [1]: Dose dependent cell death
induction of phosphorylation and polymerization of MLKL [4]: dose-dependent phosphorylation and polymerization of MLKL
induction of XBP1s [7]: dose and time-dependent inductions of XBP1s

Compound: O=S(=O)(N=Cc1c(O)ccc2ccccc12)c1cccs1 [STF-0831]
protection against light-independent LF (A2E/ATRD) cytotoxicity, RPE survival [1]: did not translate into survival

cathepsin-D activity [2]: caused reduction in cathepsin-D activity
Compound: COC(=O)[C@H](CC(C)C)NC(=O)[C@@H](N)CC(C)C [LLO, L-Leucyl-L-Leucine methyl ester]
lysosomal membrane permeabilization (galectin-3 puncta) [8]: induced Lysosome membrane permeabilization (LMP)

Compound: CCC(=O)N1CCN(c2ccc(-n3c(=O)ccc4cnc5ccc(-c6cnc7ccccc7c6)cc5c43)cc2C(F)(F)F)CC1 [Torin-1]
protection against lethal doses of A2E, viability [1]: did not confer significant protection

Compound: COC(=O)C[C@H](NC(=O)[C@H](C)NC(=O)[C@@H](NC(=O)OCc1ccccc1)C(C)C)C(=O)CF [z-VAD(OMe)-FMK] (Cbz-Val-Ala-Asp(OMe)-CH2F)
protection against light-independent LF (A2E/ATRD) cytotoxicity, RPE survival [1]: provided no protection

Compound: methyl beta-cyclodextrins [MβCD]
protection against A2E cytotoxicity by neutralization of detergent activity ([1]; 10 μM methyl-βCD, 20 μM A2E): did not protect against A2E

Compound: CC(C)(C)c1nc(-c2cccc(NS(=O)(=O)c3c(F)cccc3F)c2F)c(-c2ccnc(N)n2)s1 [dabrafenib]
protection against light-independent LF (A2E/ATRD) cytotoxicity, RPE survival [1]: increased RPE survival in a dose dependent manner

Compound: COc1ccc(-n2c(SCC#N)nc3sc4c(c3c2=O)CCCC4)cc1 [Nec5]
protection against light-independent LF (A2E/ATRD) cytotoxicity, RPE survival [1]: not affected
effect on LF-induced phosphorylation and polymerization of MLKL [4]: not affected

Compound: Cc1cc(Nc2cc(N)ncn2)c(=O)n2c1C(=O)NC21CCCCC1 [eFT508]
protection against lethal doses of A2E, viability [1]: did not confer significant protection

Compound: CC(C)c1nc(-c2ccc(NC(=O)Nc3cccc(C(F)(F)F)c3)c3ccccc23)c2c(N)nccn12 [KIRA3]
protection against light-independent LF (A2E/ATRD) cytotoxicity, RPE survival [1]: sufficient to protect against necroptosis by LF

Compound: CN1C(=O)NC(Cc2c[nH]c3c(Cl)cccc23)C1=O (stereo not shown) [Nec1s]
effect on cell death by ATR [6]: did not block cell death
protection against light-independent LF (A2E/ATRD) cytotoxicity, RPE survival [1]: not affected
effect on LF-induced phosphorylation and polymerization of MLKL [4]: not affected
